From patent US20170189496A1, “USE OF PHOSPHORYLATION PATHWAY-RELATED FACTOR IN REGULATING FUNCTION OF REGULATORY T CELL” (Institut Pasteur of Shanghai, Chinese Academy of Sciences, priority 2012, published 2017)
Entries after “also recorded” stand apart in the source; their conditions may differ.

Assays:
Format in all cases: cell-based
PIM1 [1] = target: T1, PIM1 (Homo sapiens, UniProt P11309); experiment: Histone H3 S10 phosphorylation induced by PIM1 in HEK293T cells (immunoblot); design: expressed in transfected cells; host or cells: HEK293T; settings: 50 μM, 12 h
T1 sequence (P11309 whole entry): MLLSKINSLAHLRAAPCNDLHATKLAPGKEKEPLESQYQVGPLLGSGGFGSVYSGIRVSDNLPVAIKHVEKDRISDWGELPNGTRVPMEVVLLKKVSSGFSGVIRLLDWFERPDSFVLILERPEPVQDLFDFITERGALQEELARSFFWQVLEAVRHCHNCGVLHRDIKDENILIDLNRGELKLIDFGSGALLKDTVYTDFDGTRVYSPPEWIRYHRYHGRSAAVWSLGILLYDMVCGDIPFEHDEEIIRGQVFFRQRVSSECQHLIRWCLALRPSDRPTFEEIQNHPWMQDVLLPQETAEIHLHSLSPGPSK
Procedure: FLAG-PIM1 was transfected into HEK293T cells. 36 h later, cells were treated with 50 μM of kaempferol for 12 h. 48 h after cell transfection, cells were treated in whole cell lysis solution. The levels of phosphorylated (Phospho)-histone H3S10, histone H3, and PIM1 were detected directly by immunoblot.
(§1) FLAG-PIM1 was transfected and MYC-FOXP3 and FLAG-PIM1 co-transfected into HEK293T cells. After 36 h, HEK293 was used as blank control group and each group was treated with 50 μM of kaempferol for 12 h. After 48 h, cells collected and lysed by cell lysis buffer. The levels of pS422-FOXP3, FOXP3, phosphorylated-histone H3 (Ser10), histone H3, and GAPDH were detected directly by immunoblot.
(§2) Protein samples were subjected to SDS-PAGE, and then transferred to nitrocellulose membrane, which was then sealed in TBST containing 5% nonfat dry milk or 3% bovine serum albumin for 1 h. Primary antibody was added and incubated for 1 h and then HRP-conjugated secondary antibody was added and incubated for 1 h, and results shown by exposure with ECL substrates.
HEK293T cells were co-transfected with MYC-FOXP3 and FLAG-PIM1. 36 h later, cells were treated with 50 μM of kaempferol for 12 h. Cells were collected at 48h after transfection and directly sonicated in SDS-loading buffer, and lysed by boiling.
HEK293T cells were transfected with FLAG-PIM1, and co-transfected with MYC-FOXP3 and FLAG-PIM1. 36 h later, HEK293 was used as blank control group and each group was treated with 50 μM of kaempferol for 12 h, respectively. Cells were collected alter 48 h and lysed with cell lysis buffer. The levels of pS422-FOXP3, FOXP3, histone H3 Ser10 phosphorylation, histone H3, and GAPDH were directly detected by immunoblot (results shown in FIG. 12).

PIM3 = target: T2, PIM3 (Homo sapiens, UniProt Q86V86); experiment: FOXP3 phosphorylation induced by PIM3 in HEK293T cells (immunoblot); settings: Myc-FOXP3 + FLAG-PIM3, 50 μM, 12 h
T2 construct: expressed in transfected cells; host or cells: HEK293T
Procedure: (§3) Myc-FOXP3, FLAG-PIM1, FLAG-PIM2, and FLAG-PIM3 were co-transfected into HEK293T cells. 36 h later, cells were treated with 50 μM of kaempferol for 12 h. Cells were collected 48 h after cell transfection.
as §2
(§4) HEK293T cells were co-transfected, respectively, with Myc-FOXP3+FLAG-PIM1, Myc-FOXP3+FLAG-PIM2, and Myc-FOXP3+FLAG-PIM3. 36 h later, cells were treated with 50 μM kaempferol for 12 h. After 48 h. cells were collected and lysed with cell lysis buffer.

PIM2 = target: T3, PIM2 (Homo sapiens, UniProt Q9P1W9); experiment: FOXP3 phosphorylation induced by PIM2 in HEK293T cells (immunoblot); settings: Myc-FOXP3 + FLAG-PIM2, 50 μM, 12 h
T3 construct: expressed in transfected cells; host or cells: HEK293T
T3 sequence (Q9P1W9 whole entry): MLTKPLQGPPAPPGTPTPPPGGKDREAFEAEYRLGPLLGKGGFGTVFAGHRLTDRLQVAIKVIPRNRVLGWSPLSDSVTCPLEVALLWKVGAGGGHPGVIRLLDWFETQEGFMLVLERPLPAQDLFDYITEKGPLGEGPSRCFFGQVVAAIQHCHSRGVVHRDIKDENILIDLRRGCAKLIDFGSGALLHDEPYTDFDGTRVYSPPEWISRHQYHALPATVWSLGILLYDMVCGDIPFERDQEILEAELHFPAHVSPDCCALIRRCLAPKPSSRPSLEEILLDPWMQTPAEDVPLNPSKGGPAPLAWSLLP
Procedure: as §3, §2, §4

[2] = tested on: Jurkat cells stably expressing HA-FOXP3; experiment: FOXP3 protein degradation induced by PMA/LPS in Jurkat cells stably expressing HA-FOXP3 (immunoblot); settings: PMA 25 ng/ml + LPS 1 ng/ml, 24 h; kaempferol 50 μM, PIM1 inhibitor 100 nM, PI3K inhibitor 10 μg/ml; DMSO control
Procedure: HA-FOXP3-Jurkat stable expression cells were treated with PMA (25 ng/ml) and LPS (1 ng/ml). 50 μM kaempferol, 100 nM PIM1 inhibitors (specifically of 4-[3-(4-chlorophenyl)-2,1-benzisoxazol-5-yl]-2-pyrimidinamine), and 10 μg/ml PI3K inhibitor (LY294002) were added, and DMSO as a control. Cells were collected 24 h later. The levels of FOXP3 and GAPDH were detected directly by immunoblot.
Human embryonic kidney cell line HEK293 was co-transfected with FUGW-HA-FOXP3, del 8.9 and VSV-G. Cell culture supernatants were collected 48 h and 72 h after transfection. Viruses were purified by ultracentrifugation and used to infect Jurkat E6.1 to ultimately obtain Jurkat cell lines stably expressing HA-FOXP3.
as §2
Jurkat cells stably expressing HA-FOXP3 were treated with PMA (25 ng/ml) and LPS (1 ng/ml). Each sample was added 50 μM kaempferol, 100 nM PIM1 inhibitor (i.e., 4-[3-(4-chlorophenyl)-2,1-benzisoxazol-5-yl]-2-pyrimidinamine), and 10 μg/ml PI3K inhibitor (LY294002). DMSO serves as a control. Cells were collected after 24 h.

PIM1 [3] = target: T1, PIM1; experiment: FOXP3 S422 phosphorylation induced by PIM1 in HEK293T cells (immunoblot); design: expressed in transfected cells; host or cells: HEK293T
Procedure: Myc-FOXP3 and FLAG-PIM1 were co-transfected into HEK293T cells. After 36 h, cells were treated, respectively, with 50 nM, 10 nM, 2 nM, 0.4 nM of PIM1 inhibitor and 50 μM, 10 μM, 2 μM, 0.4 μM, 0.08 μM of kaempferol for 12 h. Cells were collected at 48 h after cell transfection.
as §3, §1
Protein samples were subjected to SDS-PAGE, and then transferred to nitrocellulose membrane, which was then sealed in TBST containing 5% nonfat dry milk or 3% bovine serum albumin for 1 h. […]
HEK293T cells were transfected with FLAG-PIM1, and co-transfected with MYC-FOXP3 and FLAG-PIM1. […] The levels of pS422-FOXP3, FOXP3, histone H3 Ser10 phosphorylation, histone H3, and GAPDH were directly detected by immunoblot (results shown in FIG. 12).

[4] = tested on: induced Treg cells from human CD4+ CD45RA+ natural T cells; experiment: FOXP3 and CTLA4 expression in induced Treg (flow cytometry); settings: 50 uM, 48 h, vs DMSO control group
Procedure: Human CD4+ CD45RA+ natural T cells (i.e., natural T cells rather than Treg cells) were sorted by BD FACS Aria II flow sorter and expanded by Bead-CD3/CD28 (2:1), IL-2 (100 U/ml), and TGF-β (1 ng/ml, 3 ng/ml, and 5 ng/ml) for 5 days. DMSO or kaempferol (50 uM) was added and treated for 48 h. Flow cytometry analysis was performed after PE-FOXP3 (FIG. 14B) and APC-CTLA4 (FIG. 14A) antibody staining.
Human CD4+ CD45RA+ natural T cells (i.e., natural T cells rather than Treg cells) were sorted by BD FACS Aria II flow sorter and expanded using Bead-CD3/CD28 (2:1). IL-2 (100 U/ml), and TGF-β (1 ng/ml, 3 ng/ml, and 5 ng/ml) for 5 days to obtain the induced Treg cells. DMSO or kaempferol (50 uM) was added and treated for 48 h.

[5] = HEK293T transfected with FLAG-PIM1

PIM1 expression levels (PIM1 [1]; [5]): does not affect
histone H3 S10 phosphorylation induced by PIM1 (PIM1 [1]; [5]): inhibits; also recorded: can inhibit
histone H3 S10 phosphorylation in the control group (PIM1 [1]; HEK293 blank control group (no PIM1 transfection)): does not affect
FOXP3 phosphorylation levels induced by PIM3 (PIM3): does not affect
FOXP3 phosphorylation levels induced by PIM2 (PIM2): does not affect
SMILES: O=c1c(O)c(-c2ccc(O)cc2)oc2cc(O)cc(O)c12 [kaempferol]
FOXP3 protein degradation [2]: can inhibit
FOXP3 S422 phosphorylation, dose response (PIM1 [3]; MYC-FOXP3 + FLAG-PIM1, 50, 10, 2, 0.4, 0.08 μM for 12 h): inhibits FOXP3 S422 phosphorylation in a dose-dependent manner
FOXP3 S422 phosphorylation induced by PIM1 (PIM1 [3]; Myc-FOXP3 + FLAG-PIM1, 50 μM, 12 h): specifically inhibits; also recorded: can inhibit
CLTA4+ FOXP3+ Treg cell levels [4]: significantly increase
FOXP3 expression levels [4]: significantly increase
